CC(=NC#N)N(C)Cc1ccc(Cl)nc1
solubility (mole fraction)
Details | 278.15 K | 283.15 K | 288.15 K | 293.15 K | 298.15 K | 303.15 K | 308.15 K | 313.15 K | 318.15 K
in 1,4-dioxane | – | – | 0.0693 | 0.0799 | 0.0941 | 0.113 | 0.132 | 0.153 | 0.175
in DMF | 0.175 | 0.201 | 0.229 | 0.269 | 0.318 | 0.368 | 0.421 | 0.477 | 0.542
in DMSO | – | – | – | 0.376 | 0.426 | 0.481 | 0.54 | 0.608 | 0.68
in NMP | 0.197 | 0.221 | 0.255 | 0.299 | 0.352 | 0.405 | 0.46 | 0.523 | 0.589
in acetone | 0.104 | 0.118 | 0.138 | 0.162 | 0.191 | 0.226 | 0.264 | 0.303 | 0.346
in ethanol | 0.0162 | 0.0192 | 0.0232 | 0.0284 | 0.0328 | 0.0382 | 0.0448 | 0.05 | 0.0572
in ethyl acetate | 0.0106 | 0.0128 | 0.0155 | 0.019 | 0.0233 | 0.0281 | 0.0332 | 0.039 | 0.0448
in ethylene glycol | 0.00978 | 0.0106 | 0.0134 | 0.0163 | 0.0194 | 0.023 | 0.0269 | 0.0313 | 0.0367
in isobutanol | 0.0028 | 0.00315 | 0.0037 | 0.00452 | 0.00519 | 0.00613 | 0.00696 | 0.00821 | 0.00932
in isopropanol | 0.0067 | 0.00763 | 0.00886 | 0.0108 | 0.0127 | 0.0147 | 0.0166 | 0.0195 | 0.0221
in methanol | 0.0199 | 0.0227 | 0.0273 | 0.0325 | 0.0382 | 0.0452 | 0.0532 | 0.0619 | 0.0703
in n-butanol | 0.00149 | 0.00165 | 0.00202 | 0.00242 | 0.00284 | 0.00337 | 0.00378 | 0.00447 | 0.00507
in water | 0.000146 | 0.000173 | 0.000213 | 0.000269 | 0.000348 | 0.00045 | 0.000572 | 0.000721 | 0.000911

Reference: BigSolDB 2.1
